In US11384099B2, “Pyrazolopyridinone compounds” (Janssen Pharmaceutica NV, priority 2017, dated 2022):

Experiments:
[1] = biological target: T1, NIH/3T3 cells overexpressing FGFR3 V555M-TACC3 fusion protein (Homo sapiens, UniProt P22607, V555M, cells depend on it); experiment: NIH/3T3 FGFR3 V555M-TACC3 cell proliferation assay (CTG); type: cell-based; details: 72-hr incubation, CellTiter Glo; read-out: NIH/3T3 FGFR3 V555M-TACC3 CTG (IC50)
T1 construct: NIH/3T3 FGFR3 V555M-TACC3 CTG (IC50); other: 72-hr incubation, CellTiter Glo; fused on or other part: C-terminal coiled-coil part of TACC3 (part of the key, as a fusion known from patients); Q9Y6A5 (Transforming acidic coiled-coil-containing protein 3)
Description: NIH/3T3 FGFR3 V555M-TACC3 Cell Proliferation Assay
(§1) In day 1, 90 μL of cell suspension (NIH/3T3 cells overexpressing FGFR3 V555M-TACC3 fusion protein) (total 30,000 cells per well in growth medium (DMEM containing 1% Glutamax, 10% FBS and 1% Pen/Strep)) was seeded in a 96-well plate and then incubated overnight at 37° C. and 5% CO2. In day 2, 10 μL of growth medium containing 10-fold stock solution of testing compound was added into cell cultures (9 dose points with 4× serial dilution, starting with 10 μM, 0.1% DMSO final). After 72-hr incubation at 37° C. and 5% CO2, in day 5 a volume of 50 μL CellTiter Glo (CTG) reagent was added into cell-containing 96-well plate and the plate was incubated at room temperature for 10 minutes before RLUs (relative light unit) were measured on a microplate reader with luminescence detection module. The RLU value was normalized to survival % and concentration-response curve was plotted using Prism to calculate IC50 (M), pIC50 (−log IC50) and HillSlope value.

[2] = tested on: NIH/3T3 cells transfected with control vector (MOCK); experiment: NIH/3T3 mock cell proliferation assay (CTG, counter assay); type: cell-based; details: Mus musculus, NIH3T3; 72-hr incubation, CellTiter Glo; counter assay for general toxicity
Outline: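 Control-vector NIH/3T3 cells, 30,000/well in DMEM with 10% FBS, exposed 72 h at 37 °C to compound (9 points, 3-fold from 30 μM, 0.3% DMSO). CellTiter-Glo luminescence normalized to survival %; IC50, pIC50 and Hill slope from concentration-response fit.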

[3] = tested on: NIH/3T3 cells overexpressing FGFR3 WT-TACC3 fusion protein; experiment: NIH/3T3 FGFR3 WT-TACC3 cellular phospho-ERK assay (in vitro PD assay); type: cell-based; details: Mus musculus, NIH3T3; 1-hr incubation, AlphaLISA SureFire Ultra p-ERK1/2; read-out: NIH/3T3 FGFR3 WT-TACC3 pERK (IC50)
Description: NIH/3T3 FGFR3 WT-TACC3 Cellular Phospho-ERK Assay (In Vitro PD Assay)
(§2) 50 uL of cell suspension (NIH/3T3 cells overexpressing FGFR3 WT-TACC3 fusion protein) (total 10,000 cells per well in growth medium (DMEM containing 1% Glutamax, 10% FBS and 1% Pen/Strep)) was seeded in a 384-well plate. After overnight incubation at 37° C. and 5% CO2, 5.5 μL of growth medium containing 10× testing compound was added into cell cultures (10 dose points with 4× serial dilution, starting with 10 μM, 0.1% DMSO final). After 1-hr incubation at 37° C. and 5% CO2, the medium was depleted and AlphaLISA SureFire Ultra p-ERK1/2 (Thr202/Tyr204) Assay Kit (from PerkinElmer) was applied for phospho-ERK level detection according to the kit instructions. The RFUs (relative fluorescence units were measured on EnVision microplate reader (ex. 680 nm, em. 615 nm) and concentration-response curve was plotted using Prism to calculate IC50 (M), pIC50 (−log IC50) and HillSlope value.

[4] = biological target: T2, human FGFR3 wild type enzyme (cytoplasmic domain) (Homo sapiens, UniProt P22607); experiment: FGFR3 wild type mobility shift assay (enzymatic assay, Caliper); type: biochemical; details: 75 μM ATP, 50 minutes at 30° C.
T2 construct: human FGFR3 wild type enzyme (cytoplasmic domain, from Cama Biosciences); purchased Carna Biosciences
Outline: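 Cytoplasmic-domain FGFR3 (0.04 ng/μL) reacted with 75 μM ATP and 1 μM FL-peptide 30 in HEPES pH 7.4/MgCl2/Brij35/DTT buffer, 1% DMSO final. Incubation 50 min at 30° C, EDTA stop; substrate phosphorylation read by microfluidic mobility shift.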

[5] = tested on: NIH/3T3 cells overexpressing FGFR3 V555M-TACC3 fusion protein; experiment: NIH/3T3 FGFR3 V555M-TACC3 cellular phospho-ERK assay (in vitro PD assay); type: cell-based; details: Mus musculus, NIH3T3; 1-hr incubation, AlphaLISA SureFire Ultra p-ERK1/2; read-out: NIH/3T3 FGFR3 V555M-TACC3 pERK (IC50)
Description: NIH/3T3 FGFR3 V555M-TACC3 Cellular Phospho-ERK Assay (In Vitro PD Assay)
as §2, with “μL” for “uL”, “V555M-TACC3” for “WT-TACC3”

[6] = biological target: T3, human FGFR3 V555M enzyme (cytoplasmic domain carrying V555M mutation) (Homo sapiens, UniProt P22607, V555M); experiment: FGFR3 V555M mobility shift assay (enzymatic assay, Caliper); type: biochemical; details: 30 μM ATP, 45 minutes at 30° C.
T3 construct: cytoplasmic domain carrying V555M mutation, from Carna Biosciences; purchased Carna Biosciences
Outline: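 Cytoplasmic-domain human FGFR3 V555M (0.04 ng/μL) reacted with 30 μM ATP and 1 μM FL-peptide 30 in HEPES pH 7.4, MgCl2, Brij35, DTT, 1% DMSO final. Incubation 45 min at 30 °C, stopped with EDTA. Substrate/product separated and read by mobility shift on a Caliper EZ reader II.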

[7] = biological target: T4, NIH/3T3 cells overexpressing FGFR3 WT-TACC3 fusion protein (Homo sapiens, UniProt P22607); experiment: NIH/3T3 FGFR3 WT-TACC3 cell proliferation assay (CTG); type: cell-based; details: 72-hr incubation, CellTiter Glo; read-out: NIH/3T3 FGFR3 WT-TACC3 CTG (IC50)
T4 construct: NIH/3T3 FGFR3 WT-TACC3 CTG (IC50); other: 72-hr incubation, CellTiter Glo; fused on or other part: C-terminal coiled-coil part of TACC3 (part of the key, as a fusion known from patients); Q9Y6A5 (Transforming acidic coiled-coil-containing protein 3)
Description: NIH/3T3 FGFR3 WT-TACC3 Cell Proliferation Assay
as §1, with “WT-TACC3” for “V555M-TACC3”

T3 sequence (P22607 397-806 V555M limits assumed): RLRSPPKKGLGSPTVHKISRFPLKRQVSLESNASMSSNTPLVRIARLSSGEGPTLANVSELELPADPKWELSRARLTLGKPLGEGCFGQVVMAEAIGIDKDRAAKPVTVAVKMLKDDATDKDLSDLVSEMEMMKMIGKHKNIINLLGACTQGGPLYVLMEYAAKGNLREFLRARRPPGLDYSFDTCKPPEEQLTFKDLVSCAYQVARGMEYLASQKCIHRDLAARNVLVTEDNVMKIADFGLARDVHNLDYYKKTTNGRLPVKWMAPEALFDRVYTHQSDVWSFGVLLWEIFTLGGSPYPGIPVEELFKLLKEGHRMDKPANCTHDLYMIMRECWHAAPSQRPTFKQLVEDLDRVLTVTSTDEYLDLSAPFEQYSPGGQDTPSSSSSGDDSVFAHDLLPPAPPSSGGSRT
T1 sequence (P22607 whole entry V555M, the tested form may be a part): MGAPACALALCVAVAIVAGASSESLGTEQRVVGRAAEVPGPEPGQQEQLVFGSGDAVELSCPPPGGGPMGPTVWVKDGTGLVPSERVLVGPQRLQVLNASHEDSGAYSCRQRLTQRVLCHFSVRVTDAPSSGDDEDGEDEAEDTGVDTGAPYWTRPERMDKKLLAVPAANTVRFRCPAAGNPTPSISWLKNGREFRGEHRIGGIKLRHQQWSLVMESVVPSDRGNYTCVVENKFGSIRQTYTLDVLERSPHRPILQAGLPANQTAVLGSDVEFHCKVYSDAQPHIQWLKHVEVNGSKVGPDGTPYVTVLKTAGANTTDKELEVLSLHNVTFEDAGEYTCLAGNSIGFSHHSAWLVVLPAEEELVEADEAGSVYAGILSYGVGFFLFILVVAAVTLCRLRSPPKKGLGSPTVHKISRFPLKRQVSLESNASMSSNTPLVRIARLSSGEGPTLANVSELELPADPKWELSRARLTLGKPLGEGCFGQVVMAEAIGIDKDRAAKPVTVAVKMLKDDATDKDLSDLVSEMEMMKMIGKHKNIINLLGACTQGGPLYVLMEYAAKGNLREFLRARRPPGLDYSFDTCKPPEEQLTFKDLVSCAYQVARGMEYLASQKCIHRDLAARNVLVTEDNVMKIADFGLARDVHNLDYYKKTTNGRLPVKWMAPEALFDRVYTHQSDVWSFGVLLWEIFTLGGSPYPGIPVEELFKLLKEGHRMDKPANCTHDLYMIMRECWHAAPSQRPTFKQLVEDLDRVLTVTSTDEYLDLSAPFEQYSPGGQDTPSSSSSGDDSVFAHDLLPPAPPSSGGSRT
T4 sequence (P22607 whole entry, change not shown, the tested form may be a part): as the sequence (P22607 whole entry V555M, the tested form may be a part) above, with M555V counted along it
T2 sequence (P22607 397-806 limits assumed): as the sequence (P22607 397-806 V555M limits assumed) above, with M159V counted along it

Row | GI50 [1] [nM] | IC50 [4] [nM] | IC50 [6] [nM] | GI50 [7] [nM] | SMILES | IC50 [2] [nM] | IC50 [3] [nM] | IC50 [5] [nM]
1 | 18.5 |  |  |  | CCC(Nc1c(-c2nc3ccc(OCCOC)cc3[nH]2)c(=O)[nH]c2cn(C)nc12)c1ncccn1 (single isomer, unassigned) [Compound 48, (S*)-6-(6-(2-methoxyethoxy)-1H-benzo[d]imidazol-2-yl)-2-methyl-7-((1-(pyrimidin-2-yl)-propyl)amino)-2H-pyrazolo[4,3-b]pyridin-5 (4H)-one] | 396 |  | 
2 |  | 0.957 | 0.392 | 17.4 | COc1cc2[nH]c(-c3c(N[C@@H](C)c4ncccn4)c4nn(C)cc4[nH]c3=O)nc2c(F)c1OC [Compound 55, (S)-6-(4-fluoro-5,6-dimethoxy-1H-benzo[d]imidazol-2-yl)-2-methyl-7-((1-(pyrimidin-2-yl)ethyl)amino)-2H-pyrazolo[4,3-b]pyridin-5 (4H)-one] | 2280 | 5.5 | 5.19
